Test systems include A549 NSCLC; BT-549 breast; CAKI-1 renal; DU-145 prostate; HS 578T breast; LOX IMVI melanoma; MALME-3M melanoma; NCI/ADR-RES ovarian; OVCAR-3 ovarian; OVCAR-4 ovarian; OVCAR-5 ovarian; PC-3 prostate; RPMI-8226 leukemia; SF-268 CNS; SF-539 CNS; SK-MEL-2 melanoma; SK-MEL-5 melanoma; SNB-19 CNS; SW-620 colon; T-47D breast.
Assay in all cases: growth of human tumour cells (NCI), 48 h

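Test compounds were applied to cells in 96-well plates for 48 hours at 5 doses. At the TGI there is no net growth.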

In the case of `CCCCCCCC(=O)N/N=C/c1ccc(Sc2nccn2C)c([N+](=O)[O-])c1`, the TGI with A549 NSCLC was above 100 µM; with BT-549 breast, 34.2 µM; in the assay on CAKI-1 renal, 72.1 µM; in the assay on DU-145 prostate, 46.7 µM; in the assay on HS 578T breast it was 39.3 µM; with LOX IMVI melanoma it was 22.6 µM. The TGI in the assay on MALME-3M melanoma was 29 µM; in the assay with NCI/ADR-RES ovarian, 48.9 µM; in the assay with OVCAR-3 ovarian, 36.4 µM; in the assay on OVCAR-4 ovarian, 58.3 µM; in the assay with OVCAR-5 ovarian, 39.2 µM; in the assay on PC-3 prostate, 33.2 µM. Besides, the TGI in the assay with RPMI-8226 leukemia came to 46.7 µM; in the assay on SF-268 CNS it was 32 µM; in the assay with SF-539 CNS, 34 µM; with SK-MEL-2 melanoma it was 31 µM; in the assay with SK-MEL-5 melanoma, 26.1 µM; with SNB-19 CNS it was 87 µM. Further, the values for the TGI in the assay on SW-620 colon and in the assay with T-47D breast were 32.8 µM and 37 µM, respectively.

For the compound `COc1ccc(C2NC3=C(CCCC3)C3(C#N)C(=O)N=C(N)C23C#N)cc1` (stereo not given), the TGI in the assay with A549 NSCLC, with BT-549 breast, in the assay on CAKI-1 renal, in the assay on DU-145 prostate, with HS 578T breast and in the assay with LOX IMVI melanoma was above 100 µM in each case. For the same compound, the TGI in the assay on MALME-3M melanoma, with NCI/ADR-RES ovarian, in the assay with OVCAR-4 ovarian, with OVCAR-5 ovarian, with PC-3 prostate and in the assay with RPMI-8226 leukemia was above 100 µM each time. The TGI with SF-268 CNS, with SK-MEL-2 melanoma, with SK-MEL-5 melanoma, in the assay with SNB-19 CNS, in the assay with SW-620 colon and in the assay on T-47D breast was above 100 µM in each case.

On to `CN(C)C(=C1c2cc([N+](=O)[O-])ccc2-c2ccc([N+](=O)[O-])cc21)N(C)C`, for which the TGI with A549 NSCLC, in the assay with BT-549 breast, with CAKI-1 renal, in the assay on DU-145 prostate, in the assay with HS 578T breast and with MALME-3M melanoma was above 100 µM in each case. Besides, the TGI was above 100 µM in the assay on NCI/ADR-RES ovarian; above 100 µM in the assay with OVCAR-3 ovarian; above 100 µM in the assay with OVCAR-4 ovarian; above 100 µM in the assay with OVCAR-5 ovarian; above 100 µM in the assay with PC-3 prostate; 25.3 µM in the assay on RPMI-8226 leukemia. Also, the TGI with SF-268 CNS, in the assay with SK-MEL-2 melanoma, in the assay with SK-MEL-5 melanoma, in the assay on SNB-19 CNS, in the assay with SW-620 colon and in the assay on T-47D breast was above 100 µM in each case.

In the case of `Cn1c(COC(=O)NC2CCCCC2)c(COC(=O)NC2CCCCC2)c2ccc3cc(Cl)c(Cl)cc3c21`, the TGI in the assay on A549 NSCLC is above 100 µM; with BT-549 breast, 30.5 µM; in the assay on CAKI-1 renal, 10.4 µM; in the assay on DU-145 prostate, 84.7 µM; with HS 578T breast it was 23.6 µM; in the assay with LOX IMVI melanoma, 30.6 µM. The TGI was 25.9 µM in the assay on MALME-3M melanoma; above 100 µM in the assay with NCI/ADR-RES ovarian; 29.9 µM in the assay on OVCAR-3 ovarian; 34.5 µM in the assay with OVCAR-5 ovarian; 32.9 µM with PC-3 prostate; 24.5 µM in the assay on SF-268 CNS. Also, the TGI in the assay on SF-539 CNS stood at 42.1 µM; in the assay on SK-MEL-2 melanoma it was 28.5 µM; in the assay on SK-MEL-5 melanoma it was 26.4 µM; in the assay with SNB-19 CNS it was 26.1 µM; with SW-620 colon, 32.8 µM; in the assay on T-47D breast, 22.4 µM.

On to `NC(N)=NC(N)=Nc1c(F)c(F)c(F)c(F)c1F`, for which the TGI in the assay on A549 NSCLC, with BT-549 breast, in the assay on CAKI-1 renal, in the assay with DU-145 prostate, in the assay on HS 578T breast and in the assay on MALME-3M melanoma was above 100 µM each time. Also, the TGI in the assay with NCI/ADR-RES ovarian, in the assay with OVCAR-3 ovarian, in the assay with OVCAR-4 ovarian, in the assay with OVCAR-5 ovarian, with PC-3 prostate and in the assay on RPMI-8226 leukemia was above 100 µM each time. In addition, the TGI with SF-268 CNS, in the assay with SF-539 CNS, in the assay on SK-MEL-2 melanoma, in the assay with SK-MEL-5 melanoma, in the assay on SNB-19 CNS and with SW-620 colon was above 100 µM in each case. The same compound gave a TGI with T-47D breast above 100 µM.

Turning to `Cc1ccc(C(=O)C#Cc2cn(C3CC(O)C(CO)O3)c(=O)[nH]c2=O)cc1` (stereo not given), the TGI in the assay on A549 NSCLC, with BT-549 breast, in the assay on CAKI-1 renal, in the assay on DU-145 prostate, with HS 578T breast and in the assay with LOX IMVI melanoma was above 100 µM in each case. Also, the TGI with MALME-3M melanoma is 29.1 µM; with NCI/ADR-RES ovarian it was above 100 µM; with OVCAR-3 ovarian, 60 µM; with OVCAR-4 ovarian, above 100 µM; with PC-3 prostate, above 100 µM; with RPMI-8226 leukemia, above 100 µM. In addition, the TGI with SF-268 CNS was above 100 µM; in the assay on SF-539 CNS, above 100 µM; in the assay on SK-MEL-2 melanoma, above 100 µM; in the assay on SK-MEL-5 melanoma, above 100 µM; in the assay with SNB-19 CNS, above 100 µM; in the assay with SW-620 colon, 89.2 µM. Further, the TGI in the assay with T-47D breast worked out at 45 µM.

`CC(C)(C)OC(=O)CN1CCNCCN(CC(=O)OC(C)(C)C)CC1`: the TGI in the assay on A549 NSCLC, in the assay with BT-549 breast, in the assay with CAKI-1 renal, with DU-145 prostate, in the assay on HS 578T breast and in the assay on LOX IMVI melanoma was above 100 µM in each case. In addition, the TGI with MALME-3M melanoma, with NCI/ADR-RES ovarian, in the assay with OVCAR-3 ovarian, in the assay on OVCAR-4 ovarian, in the assay on OVCAR-5 ovarian and in the assay with PC-3 prostate was above 100 µM in each case. Besides, the TGI with RPMI-8226 leukemia, with SF-539 CNS, in the assay with SK-MEL-2 melanoma, in the assay with SK-MEL-5 melanoma, with SNB-19 CNS and in the assay on T-47D breast was above 100 µM in each case.

The record behind these values is PubChem BioAssay (NCI).
